Experimental data as given in patent US20240417371A1, “CANNABIDIOL DERIVATIVE, AND PREPARATION METHOD THEREFOR AND USE THEREOF” (priority 2021, published 2024).

Tests used:
[1] = high-purity CBD, background statement; cited from earlier work
Solubility in water = format: physicochemical
From the text: ^1[…]=0.8 Hz, 1[…]=7.6 Hz, 2[…]=6.8 Hz, 3H).

glutamic acid = assay: Content of glutamic acid in homogenate of brain tissues of rats (kit method); format: in vivo, Wistar rats; conditions: PTZ rats after 14 days, 100 mg/kg intragastric (positive drug = valproate)
Method: (§1) 5. Determination of Contents of γ-Aminobutyric Acid, Glutamic Acid, Glycine, and Aspartic Acid in Rat Brain Tissue by the Kit Method
(§2) The experimental procedures and methods were referred to the kit instructions.
(§3) The contents of excitatory amino acids (glutamic acid and aspartic acid) and inhibitory neurotransmitters (γ-aminobutyric acid and glycine) in the homogenate of brain tissues were determined by an ELISA kit.

γ-aminobutyric acid = assay: Content of γ-aminobutyric acid in homogenate of brain tissues of rats (kit method); format: in vivo, Wistar rats; conditions: PTZ rats after 14 days, 100 mg/kg intragastric (positive drug = valproate)
Method: as §1, §2, §3

Bax = assay: WB detection of apoptosis-related protein Bax in hippocampal tissues of PTZ-kindling rats; format: in vivo, Wistar rats; conditions: hippocampus at end of 14-day treatment, 100 mg/kg intragastric, versus model group
Method: (§4) At the end of the experiment, the brains and hippocampi of the laboratory animals were collected and frozen at −80° C.
(§5) 4. WB Detection of Expression of Apoptosis-Related Proteins Bax and Bcl-2 in Hippocampal Tissues of Rats:
(§6) The hippocampal tissue was cut into small pieces, the lysis buffer (protease and phosphatase inhibitors added to the lysis buffer) was added at a ratio of 150-250 μL:20 mg, and the mixture was homogenized with a homogenizer until complete lysis. The sample obtained after the lysis was centrifuged at 12,000 g at 4° C. for 15 min. The supernatant was taken, subjected to protein quantification, and stored in a refrigerator at −80° C.
(§7) • (1) Standard curve plotting: a microplate was taken, and reagents were added according to the table below. […]
(§8) About 25 μg of the protein was loaded into each well, and the loading amount can be increased according to the experiment requirements. According to the results of protein quantification, the required protein was taken and a proper amount of sample loading buffer was added. […]

[2] = test system: tyrosine hydroxylase (TH) cells in substantia nigra (SubN); assay: Tyrosine hydroxylase (TH) cells in substantia nigra (SubN) by immunohistochemistry; format: in vivo, C57/BL6 mice; conditions: MPTP mice, intragastric 100 mg/kg for 14 days (positive drug = amantadine 40 mg/kg)
Method: (§9) • (1) SPF-grade C57 mice aged 6-8 weeks were purchased and acclimatized for one week, and subsequently the modeling was started. • (2) MPTP (25 mg/kg) was intraperitoneally injected once a day for 7 consecutive days. The blank group was left untreated. • (3) After modeling, administration was started. […] The intragastric administration was performed once a day for 14 consecutive days. • (4) Behavioral test was first performed by balance beam test scoring.
5. Determination of Tyrosine Hydroxylase (TH) Cells in Substantia Nigra (SubN) by Immunohistochemistry
The tissue should be cut using sharp knives and scissors. When cutting a tissue mass, the tissue was cut by pulling backwards from the root of the knife. […] The prepared tissue mass was fixed in 10% formalin for 48 h.
The fixed tissue was washed with running water to remove residual fixing liquid and impurities. The tissue mass was dehydrated in stages with different concentrations of ethanol (50%, 70%, 85%, 95%, up to pure alcohol (absolute ethanol)), each stage for 2 h. Dehydration must be performed in a capped flask to prevent high concentrations of ethanol from absorbing moisture in the air, resulting in reduced concentrations and incomplete dehydration. The material to be preserved can remain in 70% ethanol when being dehydrated with it. For long-term preservation, an equivalent amount of glycerol can be added. […]

Bcl-2 = assay: WB detection of apoptosis-related protein Bcl-2 in hippocampal tissues of PTZ-kindling rats; format: in vivo, Wistar rats; conditions: hippocampus at end of 14-day treatment, 100 mg/kg intragastric
Method: as §4, §5, §6, §7, §8

[3] = test system: PTZ-kindling epileptic rats; assay: PTZ-kindling epilepsy model: seizure duration, Ono's grade, latency; format: in vivo, Wistar rats
Method: Wistar rats, SPF grade, weighing 240-260 g, aged 6-8 weeks, female, purchased from Shanghai Slac Laboratory Animal Co., Ltd. Feeding environment: the temperature was kept at 22±1° C., and the humidity was kept at 65%-70%, in a 12/12 hour light/dark illumination cycle, with free access to water.
After 1 week of acclimatization of all rats, modeling was started. A 1.75% PTZ solution was prepared with normal saline, and the prepared PTZ solution was injected intraperitoneally at a dose of 35 mg/kg. PTZ was injected once every other day, and behavioral changes of the rats were observed within 30 min after the PTZ injection, and the seizure grade was recorded.
During the experiment, after 11 consecutive injections of PTZ, the seizure grade was recorded. All rats had 5 consecutive recordings of grade 2 or above, and modeling for all rats was successful after 11 consecutive injections of PZT into all rats.
After the modeling was successful, the rats were randomly grouped. Treatment was started. All Wistar rats were weighed and doses for the intragastric administration were calculated.
Before the administration and on day 7 and day 14 after the administration, the prepared PTZ solution was injected intraperitoneally at a dose of 35 mg/kg 1 h after intragastric administration. Behavioral changes of the rats were observed within 30 min after the PTZ injection.
Behavioral seizure indexes before and after the administration were recorded and graded according to Ono's grading. The seizure latency, seizure grade and seizure duration were recorded.

[4] = test system: mouse model of Parkinson's disease established by the intraperitoneal injection of MPTP; assay: Behavioral balance beam score in MPTP model of Parkinson's disease; format: in vivo, C57/BL6 mice; conditions: scale 0-5
Method: C57/BL6 mice, SPF grade, weighing 18-20 g, aged 6-8 weeks, male, purchased from Shanghai Slac Laboratory Animal Co., Ltd. Feeding environment: the temperature was kept at 22±1° C., and the humidity was kept at 65%-70%, in a 12/12 hour light/dark illumination cycle, with free access to water.
as §9
A beam of 80 cm long and 2.5 cm wide was horizontally fixed at a height of 10 cm from the table top, and subsequently, the animals were allowed to walk on the beam. […]

aspartic acid = assay: Content of aspartic acid in homogenate of brain tissues of rats (kit method); format: in vivo, Wistar rats; conditions: PTZ rats after 14 days, 100 mg/kg intragastric (positive drug = valproate)
Method: as §1, §2, §3

glycine = assay: Content of glycine in homogenate of brain tissues of rats (kit method); format: in vivo, Wistar rats; conditions: PTZ rats after 14 days, 100 mg/kg intragastric (positive drug = valproate)
Method: as §1, §2, §3

dopamine = assay: Content of dopamine in striatum of the model of Parkinson's disease (kit method); format: in vivo, C57/BL6 mice; conditions: MPTP mice; intragastric 100 mg/kg for 14 days (positive drug = amantadine 40 mg/kg)
From the text: After the mice were sacrificed quickly, the brains of the mice were taken and the cerebral palliums (CPs) of the mice were isolated. After exposing the brain striatum of the mice, the striatum was weighed and homogenized after adding PBS according to a proportion. The supernatant was isolated and detected for the content of dopamine in the brain striatum.

C=C(C)[C@@H]1CCC(C)=C[C@H]1c1c(O)cc(CCCCC)cc1O [CBD, 2-[(1R,6R)-3-methyl-6-(1-methylvinyl)-2-cyclohexen-1-yl]-5-pentyl-1,3-benzenediol]
solubility in water [1]: almost insoluble in water

C=C(C)[C@@H]1CCC(C)=C[C@H]1c1c(O)cc(CCCCC)cc1OCC(=O)N[C@@H](CCSC)C(=O)[O-].[Na+] [Compound E1]
solubility (Solubility in water): 27 mg/mL
Glutamic acid (glutamic acid): 0.14 ± 0.02 µmol/mg
γ-aminobutyric acid (γ-aminobutyric acid): 771.17 ± 81.98 nmol/g
Bax protein expression in hippocampal tissues (Bax): significant down-regulation of Bax protein expression
TH cell positive rate [2]: 16.92 ± 3.13 %
Bcl-2 protein expression in hippocampal tissues (Bcl-2): significantly higher than that in the model group
Ono's grade before treatment ([3]; grade 0-6 (Table 1), baseline before treatment): 3.17 ± 0.41
Ono's grade on day 7 of treatment ([3]; grade 0-6, intragastric 100 mg/kg (positive drug = valproate), day 7): 3.33 ± 0.52
Ono's grade on day 14 of treatment ([3]; grade 0-6, intragastric 100 mg/kg (positive drug = valproate), day 14): 3.33 ± 0.52
Duration on day 7 of treatment ([3]; intragastric 100 mg/kg (positive drug = valproate 100 mg/kg), PTZ 35 mg/kg i.p. 1 h after administration, day 7): 290.50 ± 66.93 s
Duration on day 14 of treatment ([3]; intragastric 100 mg/kg (positive drug = valproate 100 mg/kg), PTZ 35 mg/kg i.p. 1 h after administration, day 14): 299.67 ± 39.25 s
Latency on day 7 of treatment ([3]; intragastric 100 mg/kg (positive drug = valproate), day 7): 82.83 ± 20.90 s
Latency on day 14 of treatment ([3]; intragastric 100 mg/kg (positive drug = valproate), day 14): 87.00 ± 20.96 s
change in duration of seizure on day 14 as compared to day 7 of treatment ([3]; intragastric 100 mg/kg, PTZ-kindling rats): no change in the duration of seizure
Latency before treatment ([3]; latency to seizure after PTZ 35 mg/kg i.p., baseline before treatment): 85.75 ± 21.45 s
Duration before treatment ([3]; seizure duration after PTZ 35 mg/kg i.p., baseline before treatment): 359.83 ± 14.41 s
behavioral balance beam score, After modeling ([4]; after MPTP 25 mg/kg i.p. for 7 days, before treatment): 4.63 ± 0.52
behavioral balance beam score, After treatment ([4]; intragastric 100 mg/kg once a day for 14 days (positive drug = amantadine 40 mg/kg)): 3.75 ± 0.89
Aspartic acid (aspartic acid): 58.10 ± 11.71 µmol/g
Glycine (glycine): 0.67 ± 0.07 ng/µg
DA, content of dopamine in striatum after treatment (dopamine): 0.45 ± 0.09 # ng/mg

C=C(C)[C@@H]1CCC(C)=C[C@H]1c1c(OCC(=O)N[C@@H](CCSC)C(=O)[O-])cc(CCCCC)cc1OCC(=O)N[C@@H](CCSC)C(=O)[O-].[Na+].[Na+] [Compound E2]
solubility (Solubility in water): 200 mg/mL
